Holding throughout (experiment): NCI-60 cell line screen, 48 h
Experiment [1] deals with MDA-MB-231.
Experiment [2] deals with IGROV-1.
Experiment [3] relates to ACHN.
Experiment [4] has as its system UACC-62.
The subject of experiment [5] is A498.
For experiment [6], the system named is HL-60.
Experiment [7] concerns SNB-75.
Experiment [8] relates to MDA-MB-435.
Experiment [9] deals with HOP-92.
Experiment [10] concerns EKVX.
In experiment [11] the test system is U-251.
Experiment [12] concerns COLO 205.
For experiment [13], the system named is M14.
In experiment [14] the test system is NCI/ADR-RES.
For experiment [15], the system named is SF-268.
In experiment [16] the test system is Malme-3M.
Experiment [17] concerns HT-29.
Experiment [18] has as its system SF-295.
Experiment [19] relates to OVCAR-3.

The structures appear in SMILES notation.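 Assay format: 96-well plates, 48-hour exposure. GI50 is the concentration that inhibits growth by half.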 The source made the active and inactive calls. Cut-off read from the data, not from the text of the source: active = GI50 up to about 1.1 µM and inactive = higher.

For the compound `CC(C)(C)OC(=O)N[C@H]1CCN(C2CCCCC2)C1=O`, the GI50 in [1], in [2], in experiment [3], in experiment [4], in experiment [5] and in experiment [6] was > 100 µM (inactive) in each case. For the same compound, the GI50 in experiment [7], in [8], in [9], in experiment [10], in [11] and in [12] was > 100 µM (inactive) throughout. Moreover, the GI50 in [13] is > 100 µM (inactive); in experiment [14] it was 40.6 µM (inactive); in [15], > 100 µM (inactive).

As to `CC1COS(=O)O1` (centres undefined), the GI50 in experiment [2], in [3], in [4], in [16], in [5] and in [6] was > 100 µM (inactive) in each case. Besides, the GI50 in experiment [7] was 63 µM (inactive); in experiment [9], > 100 µM (inactive); in experiment [17] it was > 100 µM (inactive); in experiment [10] it was > 100 µM (inactive); in experiment [12], > 100 µM (inactive); in experiment [13] it was > 100 µM (inactive). Further, the GI50 in experiment [18], in [19] and in experiment [15] was > 100 µM (inactive) throughout.

Consider `COC(=O)C(C)(C)[C@@H]1OC(=O)N(S(=O)(=O)c2c(C)cc(C)cc2C)[C@H]1C(C)C`, for which the GI50 in experiment [1] was > 100 µM (inactive); in experiment [2], > 100 µM (inactive); in [3] it was > 100 µM (inactive); in experiment [4] it was > 100 µM (inactive); in experiment [16], > 100 µM (inactive); in [6], 23.6 µM (inactive). For the same compound, the GI50 was 41 µM (inactive) in experiment [7]; > 100 µM (inactive) in experiment [8]; 23.1 µM (inactive) in [9]; 65.8 µM (inactive) in experiment [17]; > 100 µM (inactive) in experiment [10]; > 100 µM (inactive) in experiment [11]. Further, the GI50 in [12] was 27 µM (inactive); in [13] it was 88.1 µM (inactive); in [18], > 100 µM (inactive); in experiment [19], 89.9 µM (inactive); in [14], > 100 µM (inactive); in [15] it was > 100 µM (inactive).

With `CCCCCCCCCCCCn1[nH]c(C)c(C(=S)SCCCCCCCC)c1=O`, the GI50 in experiment [2] was > 91.6 µM (inactive); in experiment [3] it was 37.6 µM (inactive); in experiment [4], 21.1 µM (inactive); in experiment [16], > 100 µM (inactive); in [5], > 100 µM (inactive); in experiment [6] it was 45.1 µM (inactive). In addition, the GI50 is > 100 µM (inactive) in experiment [7]; > 100 µM (inactive) in experiment [9]; 76.2 µM (inactive) in [17]; 43.9 µM (inactive) in experiment [10]; 45 µM (inactive) in experiment [11]; 37.2 µM (inactive) in experiment [12]. Further, the GI50 was 56.1 µM (inactive) in [13], > 63 µM (inactive) in [18], 34.8 µM (inactive) in experiment [19] and > 72.6 µM (inactive) in experiment [15].

Regarding `CC(=O)OCC1OC(n2c3c(c(-c4ccc(Cl)cc4)c(C#N)c2=S)CCCC3)C(OC(C)=O)C(OC(C)=O)C1OC(C)=O` (centres undefined), the GI50 in experiment [1] is > 100 µM (inactive); in [2], 45.9 µM (inactive); in [3], 43.8 µM (inactive); in experiment [4], 23.3 µM (inactive); in [16], 56.8 µM (inactive); in experiment [5], 35.2 µM (inactive). In addition, the GI50 in experiment [6] is 64.9 µM (inactive); in experiment [7], 15.3 µM (inactive); in experiment [8], 67.3 µM (inactive); in experiment [9], 7.29 µM (inactive); in experiment [17] it was 57.5 µM (inactive); in experiment [11], 88.9 µM (inactive). Further, the GI50 in [12] is 35.2 µM (inactive); in [13] it was 81.1 µM (inactive); in [18], 37.9 µM (inactive); in experiment [19], 21.7 µM (inactive); in experiment [14] it was 46.5 µM (inactive); in experiment [15], 96.6 µM (inactive).

As for `CN(C(=O)C12C3C4C1C1C2C3C41C(N)=O)C(C)(C)C` (centres undefined), the GI50 in experiment [2], in [3], in experiment [4], in experiment [16], in experiment [5] and in experiment [6] was > 100 µM (inactive) each time. Moreover, the GI50 in experiment [7], in [9], in experiment [17], in [10], in experiment [12] and in experiment [13] was > 100 µM (inactive) throughout. Further, the GI50 in experiment [18], in [19] and in experiment [15] was > 100 µM (inactive) throughout.

Take `COc1ccc(/C=C2\Sc3nnc(-c4ccccc4)n3N=C2c2cc(F)c(Cl)cc2Cl)cc1OC`: the GI50 in experiment [1] is 59.2 µM (inactive); in experiment [2] it was 40.4 µM (inactive); in experiment [3] it was > 100 µM (inactive); in experiment [5] it was > 100 µM (inactive); in experiment [6], 0.573 µM (active); in experiment [8] it was 13.8 µM (inactive). Moreover, the GI50 in experiment [9] is 37 µM (inactive); in [17] it was 12.1 µM (inactive); in experiment [10], > 100 µM (inactive); in [11], > 100 µM (inactive); in experiment [13], 29.3 µM (inactive); in [18] it was > 100 µM (inactive). Further, the GI50 is > 100 µM (inactive) in [19], 33.1 µM (inactive) in experiment [14] and 21 µM (inactive) in experiment [15].

Consider `O=C(/C=C/c1ccc(Cl)c(Cl)c1)c1cccc2ccccc12`, for which the GI50 in [2] was 11.7 µM (inactive); in [3] it was 16.4 µM (inactive); in experiment [4] it was 12.9 µM (inactive); in experiment [16], 18.4 µM (inactive); in [5], 22.5 µM (inactive); in experiment [6] it was 2.07 µM (inactive). For the same compound, the GI50 was 3.51 µM (inactive) in experiment [7]; 16.8 µM (inactive) in [9]; 3.59 µM (inactive) in [17]; 18.4 µM (inactive) in experiment [10]; 2.74 µM (inactive) in experiment [11]; 12.3 µM (inactive) in experiment [12]. Further, the GI50 in experiment [13] is 17.1 µM (inactive); in experiment [18] it was 11.4 µM (inactive); in [19], 6.32 µM (inactive); in experiment [15] it was 4.52 µM (inactive).

`CC(=O)OCC1=CC2CCC3C(C)(CCC[C@]3(C)COC(C)=O)C23CC[C@H]1C3` (some centres undefined): the GI50 in [2] is 99.3 µM (inactive); in experiment [3] it was 73.1 µM (inactive); in experiment [4], 36.1 µM (inactive); in experiment [16], 52.8 µM (inactive); in experiment [5], > 100 µM (inactive); in experiment [6], 26 µM (inactive). The GI50 in experiment [7] was 34.9 µM (inactive); in experiment [9], 27.8 µM (inactive); in [17], 35.8 µM (inactive); in experiment [10] it was 83 µM (inactive); in experiment [11], 27.9 µM (inactive); in experiment [12], 24 µM (inactive). Further, the GI50 was 36 µM (inactive) in experiment [13], 37.3 µM (inactive) in experiment [18], 31.9 µM (inactive) in experiment [19] and > 100 µM (inactive) in experiment [15].

For the compound `CC(=O)c1ccc2c(c1)CC1(C2)Cc2cc3c(cc2C1=O)CCC3` (centres undefined), the GI50 is 20.6 µM (inactive) in [1]; 19.8 µM (inactive) in [2]; 16.1 µM (inactive) in [3]; 13.3 µM (inactive) in experiment [16]; 19.5 µM (inactive) in experiment [5]; 14.3 µM (inactive) in [6]. Also, the GI50 in experiment [7] was 15.6 µM (inactive); in experiment [8], 17 µM (inactive); in [9] it was 25.9 µM (inactive); in experiment [17], 15.7 µM (inactive); in [10] it was 25.2 µM (inactive); in [11] it was 30.3 µM (inactive). The GI50 in [12] is 14.9 µM (inactive); in experiment [13], 15 µM (inactive); in experiment [18] it was 21.8 µM (inactive); in experiment [19], 16.1 µM (inactive); in experiment [14] it was 12.2 µM (inactive); in [15], 28.9 µM (inactive).

For `NC(=O)N/N=C(\CC1OC(=O)c2ccccc21)c1ccco1` (centres undefined), the GI50 in experiment [2], in experiment [3], in experiment [4], in [16], in experiment [5] and in experiment [6] was > 100 µM (inactive) in each case. For the same compound, the GI50 in experiment [7], in experiment [9], in experiment [17], in experiment [10], in experiment [12] and in experiment [13] was > 100 µM (inactive) throughout. The GI50 in [18], in experiment [19] and in [15] was > 100 µM (inactive) throughout.

On to `COc1cc(OC)c2c(C)cc(=O)oc2c1`, for which the GI50 in [1] is 70.3 µM (inactive); in experiment [2], 35.2 µM (inactive); in experiment [3] it was 36.7 µM (inactive); in experiment [4], 96.4 µM (inactive); in experiment [16] it was 53 µM (inactive); in [5], 20.6 µM (inactive). Also, the GI50 in experiment [7] was 25.9 µM (inactive); in [8], 88.9 µM (inactive); in [17], 43.4 µM (inactive); in experiment [10] it was 50.5 µM (inactive); in experiment [11] it was 84.7 µM (inactive); in [12], 54.1 µM (inactive). Moreover, the GI50 is > 100 µM (inactive) in experiment [13]; 75.9 µM (inactive) in experiment [18]; > 100 µM (inactive) in [19]; 63.8 µM (inactive) in experiment [14]; 47.9 µM (inactive) in experiment [15].

The record behind these values is ChEMBL document CHEMBL1201862, “PubChem BioAssay data set” (2004).
